Data reported in publication PMC12392461, “Beyond Estrogenicity: A Comparative Assessment of Bisphenol A and Its Alternatives in In Vitro Assays Questions Safety of Replacements” (Environmental Science & Technology, 2025).
Where two headings read alike, the source gives them in different places.

Assays:
[1] = target: T1, Peroxisome proliferator-activated receptor γ (Homo sapiens, UniProt P37231); assay: cell-based; details: for EC10, linear transformed / EC10, linear / logEC10: PPARγ bioassay; for EC10, linear: linear model; for logEC10: log-logistic model; for SR-ScorePPARγ: SR-Score, sigma k=1, x=5; for EC10, PPARγ: effect; for log(1/EC10) PPARγ: input of the ToxPi score, values up to 1.00; for Emax: read-out: Emax%PPARγ
T1 sequence (P37231 238-505 limits assumed): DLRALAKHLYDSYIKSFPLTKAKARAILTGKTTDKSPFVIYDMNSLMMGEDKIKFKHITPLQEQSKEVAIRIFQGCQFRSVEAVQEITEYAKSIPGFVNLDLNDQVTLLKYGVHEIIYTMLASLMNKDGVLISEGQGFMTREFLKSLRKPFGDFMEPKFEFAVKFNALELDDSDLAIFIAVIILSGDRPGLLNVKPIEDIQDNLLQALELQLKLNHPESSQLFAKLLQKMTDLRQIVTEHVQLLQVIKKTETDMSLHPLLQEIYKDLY
Summary of the method: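 ERα-UAS-bla GripTite and PPARγ-UAS-bla β-lactamase reporter cells were seeded and held 24 h at 37 °C, 5% CO₂ before dosing. EC10 values used only concentrations below the IC10 from IncuCyte confluency. Emax% is the log-logistic curve maximum relative to the reference chemical's maximum.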

SH-SY5Y cells = details: for IC10, linear: linear model; for logIC10: log-logistic model
Summary of the method: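 Cytotoxicity was scored by live–dead nuclear staining (Nuclear Green LCS1 plus propidium iodide) after 24 h chemical exposure at 37° C. Cells were retinoic acid-differentiated (10 µM) and held in medium with 2% B-27 and 2 mM GlutaMAX. Duplicate 11-point dilution series were used, and IC10 was derived.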

MCF7 (ARE/MMP) = details: for IC10, linear transformed / IC10, linear / logIC10: dosing range all; for IC10, MCF7, MMP: MCF7, MMP readout
Summary of the method: (§1)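 Cells were seeded and incubated 24 h, then dosed with 11-step serial dilutions of each chemical in duplicate (methanol below 1%). Confluency was imaged before and after a further 24 h at 37 °C. IC10 from this viability served as the cut-off for deriving effect concentrations.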

HEK293T (ERα) = details: for IC10, linear transformed / IC10, linear / logIC10: dosing range all; for IC10, HEK293, ERα: HEK293 (ERα assay cells)
Summary of the method: as §1

H4IIe (AhR CALUX) = details: for IC10, linear transformed / IC10, linear / logIC10: Bioassay AhR, dosing range all; for IC10, linear transformed / IC10, linear / logIC10 / IC10, H4IIe, AhR: cytotoxicity; for IC10, linear: linear model fit; for logIC10: log-logistic model fit; for IC10, H4IIe, AhR: H4IIe (AhR assay cells)
Summary of the method: as §1

[2] = NOI bioassay cytotoxicity, dosing range all
[3] = Bioassay ARE, cytotoxicity, linear model fit
[4] = Bioassay ARE, cytotoxicity, log-logistic model fit
[5] = MMP bioassay cytotoxicity, linear model
[6] = MMP bioassay cytotoxicity, log-logistic model
[7] = Bioassay ERα, cytotoxicity, linear model fit
[8] = Bioassay ERα, cytotoxicity, log-logistic model fit

SMILES | SR-ScorePPARγ [1] | EC10, PPARγ [1] [nM] | log(1/EC10) PPARγ [1] | Emax [1] [%] | IC10, linear (SH-SY5Y cells; [2]) | logIC10 (SH-SY5Y cells; [2]) | IC10, linear (MCF7 (ARE/MMP); [3]) | logIC10 (MCF7 (ARE/MMP); [4]) | IC10, linear transformed (MCF7 (ARE/MMP); MMP bioassay cytotoxicity) | IC10, linear (MCF7 (ARE/MMP); [5]) | logIC10 (MCF7 (ARE/MMP); [6]) | IC10, MCF7, MMP (MCF7 (ARE/MMP); cytotoxicity) [µM] | IC10, linear transformed (HEK293T (ERα); Bioassay ERα, cytotoxicity) | IC10, linear (HEK293T (ERα); [7]) | logIC10 (HEK293T (ERα); [8]) | IC10, HEK293, ERα (HEK293T (ERα); cytotoxicity) [µM] | IC10, linear transformed (H4IIe (AhR CALUX)) | IC10, linear (H4IIe (AhR CALUX)) | logIC10 (H4IIe (AhR CALUX)) | IC10, H4IIe, AhR (H4IIe (AhR CALUX)) [µM] | also measured
CC(C)(c1cc(Cl)c(O)c(Cl)c1)c1cc(Cl)c(O)c(Cl)c1 [TCBPA, 2,2',6,6'-Tetrachlorobisphenol A] | 1.00 | 155 | 0.96 | 32 | 3.70E-08 | no cytotoxicity | 8.16E-05 | -4.11 | 9.30E-05 | 7.25E-05 | -4.03 | 93 | 6.86E-06 | 1.51E-05 | -4.77 | 15.1 | 9.01E-05 | no cytotoxicity | -4.05 | 90.1 | EC10, linear transformed ([1]; dosing range high): 4.16E-08; EC10, linear ([1]; dosing range high): 7.40E-08; logEC10 ([1]; dosing range high): -7.38; EC10, linear transformed ([1]; dosing range low): 1.55E-07; EC10, linear ([1]; dosing range low): 1.92E-07; logEC10 ([1]; dosing range low): -6.81; IC10, linear transformed (MCF7 (ARE/MMP); Bioassay ARE, cytotoxicity): 7.84E-05; IC10, MCF7, ARE (MCF7 (ARE/MMP); cytotoxicity, MCF7, ARE readout): 78.4 µM
Cc1cc(Cc2cc(C)c(O)c(C)c2)cc(C)c1O [TMBPF, Bis(3,5-dimethyl-4-hydroxyphenyl)methane] | 0.98 | 329 | 0.92 | 18 | 1.62E-05 | -4.90 | no cytotoxicity | no cytotoxicity | 1.42E-05 | no cytotoxicity | -4.85 | 14.2 | 5.55E-06 | 6.58E-06 | -5.17 | 6.58 | 1.05E-04 | 1.11E-04 | -3.98 | 105 | EC10, PPARγ (M) ([1]; 10% of maximum effect of rosiglitazone): 3.29 × 10^–7 M; EC10, linear transformed ([1]; dosing range all): 3.29E-07; EC10, linear ([1]; dosing range all): 5.55E-07; logEC10 ([1]; dosing range all): -6.48; Specificity ratio (SRbaseline) SRPPARγ ([1]; against baseline cytotoxicity): 13.64; Specificity ratio (SRcytotoxicity) SRPPARγ ([1]; against experimental cytotoxicity): 8.97; IC10, linear transformed (SH-SY5Y cells; [2]): 1.27E-05; Toxic ratio (TR) TRNOI (SH-SY5Y cells; against baseline cytotoxicity): 0.73; IC10, SH-S5Y5, NOI (SH-SY5Y cells; cytotoxicity, NOI assay cells): 12.7 µM; Toxic ratio (TR) TRMMP (MCF7 (ARE/MMP); against baseline cytotoxicity, MMP readout): 0.95; Toxic ratio (TR) TRERα (HEK293T (ERα); against baseline cytotoxicity): 0.68; Toxic ratio (TR) TRAhR (H4IIe (AhR CALUX); against baseline cytotoxicity): 0.13
CC1(C)[C@H](O)C(C)(C)[C@H]1O [Trans TMCD] | – | – | – | – | no cytotoxicity | no cytotoxicity | no cytotoxicity | no cytotoxicity | – | no cytotoxicity | no cytotoxicity | – | – | – | – | – | 1.03E-02 | 8.94E-03 | -1.99 | – | EC10, linear ([1]; dosing range all): no effect; logEC10 ([1]; dosing range all): no effect; IC10, linear transformed (HEK293T (ERα); ERα bioassay cytotoxicity): 5.38E-03; IC10, linear (HEK293T (ERα); ERα bioassay cytotoxicity, linear model): no cytotoxicity; logIC10 (HEK293T (ERα); ERα bioassay cytotoxicity, log-logistic model): no cytotoxicity
